Measured values published in the supplement of paper PMC10307832.

Columns and labels:
Experiment in all cases: relative viability (nuclei count vs DMSO), 5 days (fraction); higher = more cells survive
NCI-H2347 = tested on: NCI-H2347
How it was run: (§1)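 Relative viability divides the nuclei count in treated wells by that in vehicle wells. Lung cancer cell lines were seeded in 1536-well plates, dosed by pin tool the next day, and fixed and stained after 5 days in one step with final 0.05% Triton X-100, 1% formaldehyde and 1 ug/ml Hoechst. Dosing was a single drug or a fixed anchor-drug dose plus five library-drug doses (not always all listed) in √10 steps, and values are medians of duplicate plates imaged at 4×.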

NCI-H596 = tested on: NCI-H596
How it was run: as §1

HCC-78 = tested on: HCC-78
How it was run: as §1

HCC-366 = tested on: HCC-366
How it was run: as §1

ChaGo-K-1 = tested on: ChaGo-K-1
How it was run: as §1

NCI-H1355 = tested on: NCI-H1355
How it was run: as §1

NCI-H1734 = tested on: NCI-H1734
How it was run: as §1

RERF-LC-KJ = tested on: RERF-LC-KJ
How it was run: as §1

CAL-12T = tested on: CAL-12T
How it was run: as §1

EMC-BAC-2 = tested on: EMC-BAC-2
How it was run: as §1

NCI-H2085 = tested on: NCI-H2085
How it was run: as §1

NCI-H2405 = tested on: NCI-H2405
How it was run: as §1

HOP-62 = tested on: HOP-62
How it was run: as §1

PC-14 = tested on: PC-14
How it was run: as §1

NCI-H838 = tested on: NCI-H838
How it was run: as §1

NCI-H2228 = tested on: NCI-H2228
How it was run: as §1

NCI-H1993 = tested on: NCI-H1993
How it was run: as §1

LK-2 = tested on: LK-2
How it was run: as §1

LC-2-ad = tested on: LC-2-ad
How it was run: as §1

NCI-H2009 = tested on: NCI-H2009
How it was run: as §1

NCI-H3122 = tested on: NCI-H3122
How it was run: as §1

SW 1573 = tested on: SW 1573
How it was run: as §1

SK-MES-1 = tested on: SK-MES-1
How it was run: as §1

`O=C(O)CCCCC(CCSCc1ccccc1)SCc1ccccc1` (centres undefined) [CPI-613] + O=C(c1cc(Cc2n[nH]c(=O)c3ccccc23)ccc1F)N1CCN(C(=O)C2CC2)CC1 [Olaparib] (partner 8 µM) gave a relative viability (NCI-H2347; first compound 5 µM) of 0.535, a relative viability (NCI-H2347; first compound 15.81 µM) of 0.505 and a relative viability (NCI-H2347; first compound 50 µM) of 0.562. It also gave a relative viability (NCI-H2347; first compound 158.11 µM) of 0.495, a relative viability (NCI-H2347; first compound 500 µM) of 0.349 and a relative viability (NCI-H596; first compound 5 µM) of 0.723. It also gave a relative viability (NCI-H596; first compound 15.81 µM) of 0.723, a relative viability (NCI-H596; first compound 50 µM) of 0.633 and a relative viability (NCI-H596; first compound 158.11 µM) of 0.323. It also gave a relative viability (NCI-H596; first compound 500 µM) of 0.0561, a relative viability (HCC-78; first compound 15.81 µM) of 0.792 and a relative viability (HCC-78; first compound 50 µM) of 0.857. For the same compound, the relative viability (HCC-78; first compound 158.11 µM) was 0.842, the relative viability (HCC-78; first compound 500 µM) was 0.711 and the relative viability (HCC-366; first compound 5 µM) was 0.392. It also gave a relative viability (HCC-366; first compound 15.81 µM) of 0.37, a relative viability (HCC-366; first compound 50 µM) of 0.41 and a relative viability (HCC-366; first compound 158.11 µM) of 0.0554. It also gave a relative viability (HCC-366; first compound 500 µM) of 0.0079, a relative viability (ChaGo-K-1; first compound 5 µM) of 0.4 and a relative viability (ChaGo-K-1; first compound 15.81 µM) of 0.411. The relative viability (ChaGo-K-1; first compound 50 µM) was 0.412, the relative viability (ChaGo-K-1; first compound 158.11 µM) was 0.319 and the relative viability (ChaGo-K-1; first compound 500 µM) was 0.251. For the same compound, the relative viability (NCI-H1355; first compound 5 µM) was 0.728, the relative viability (NCI-H1355; first compound 15.81 µM) was 0.706 and the relative viability (NCI-H1355; first compound 50 µM) was 0.714. The relative viability (NCI-H1355; first compound 158.11 µM) was 0.376, the relative viability (NCI-H1355; first compound 500 µM) was 0.0737 and the relative viability (NCI-H1734; first compound 5 µM) was 0.584. For the same compound, the relative viability (NCI-H1734; first compound 15.81 µM) was 0.596, the relative viability (NCI-H1734; first compound 50 µM) was 0.516 and the relative viability (NCI-H1734; first compound 158.11 µM) was 0.373. The relative viability (NCI-H1734; first compound 500 µM) was 0.173, the relative viability (RERF-LC-KJ; first compound 5 µM) was 0.979 and the relative viability (RERF-LC-KJ; first compound 15.81 µM) was 0.83. The relative viability (RERF-LC-KJ; first compound 50 µM) was 0.804, the relative viability (RERF-LC-KJ; first compound 158.11 µM) was 0.273 and the relative viability (RERF-LC-KJ; first compound 500 µM) was 0.133. For the same compound, the relative viability (CAL-12T; first compound 5 µM) was 0.72, the relative viability (CAL-12T; first compound 15.81 µM) was 0.634 and the relative viability (CAL-12T; first compound 50 µM) was 0.627. It also gave a relative viability (CAL-12T; first compound 158.11 µM) of 0.473, a relative viability (CAL-12T; first compound 500 µM) of 0.488 and a relative viability (EMC-BAC-2; first compound 5 µM) of 0.508. For the same compound, the relative viability (EMC-BAC-2; first compound 15.81 µM) was 0.432, the relative viability (EMC-BAC-2; first compound 50 µM) was 0.484 and the relative viability (EMC-BAC-2; first compound 158.11 µM) was 0.199. The relative viability (EMC-BAC-2; first compound 500 µM) was 0.229, the relative viability (NCI-H2085; first compound 5 µM) was 0.745 and the relative viability (NCI-H2085; first compound 15.81 µM) was 0.712. The relative viability (NCI-H2085; first compound 50 µM) was 0.725, the relative viability (NCI-H2085; first compound 158.11 µM) was 0.362 and the relative viability (NCI-H2085; first compound 500 µM) was 0.209. For the same compound, the relative viability (NCI-H2405; first compound 5 µM) was 0.89, the relative viability (NCI-H2405; first compound 15.81 µM) was 0.787 and the relative viability (NCI-H2405; first compound 50 µM) was 0.781. The relative viability (NCI-H2405; first compound 158.11 µM) was 0.25, the relative viability (NCI-H2405; first compound 500 µM) was 0.0972 and the relative viability (HOP-62; first compound 5 µM) was 0.298. The relative viability (HOP-62; first compound 15.81 µM) was 0.471, the relative viability (HOP-62; first compound 50 µM) was 0.368 and the relative viability (HOP-62; first compound 158.11 µM) was 0.459. It also gave a relative viability (HOP-62; first compound 500 µM) of 0.459, a relative viability (PC-14; first compound 5 µM) of 0.283 and a relative viability (PC-14; first compound 15.81 µM) of 0.231. It also gave a relative viability (PC-14; first compound 50 µM) of 0.262, a relative viability (PC-14; first compound 158.11 µM) of 0.078 and a relative viability (PC-14; first compound 500 µM) of 0.0073. It also gave a relative viability (NCI-H838; first compound 5 µM) of 0.79, a relative viability (NCI-H838; first compound 15.81 µM) of 0.705 and a relative viability (NCI-H838; first compound 50 µM) of 0.721. The relative viability (NCI-H838; first compound 158.11 µM) was 0.278, the relative viability (NCI-H838; first compound 500 µM) was 0.115 and the relative viability (NCI-H2228; first compound 5 µM) was 0.532. It also gave a relative viability (NCI-H2228; first compound 15.81 µM) of 0.411, a relative viability (NCI-H2228; first compound 50 µM) of 0.634 and a relative viability (NCI-H2228; first compound 158.11 µM) of 0.628. The relative viability (NCI-H2228; first compound 500 µM) was 0.185, the relative viability (NCI-H1993; first compound 5 µM) was 1.15 and the relative viability (NCI-H1993; first compound 15.81 µM) was 0.918. The relative viability (NCI-H1993; first compound 50 µM) was 0.908, the relative viability (NCI-H1993; first compound 158.11 µM) was 0.6 and the relative viability (NCI-H1993; first compound 500 µM) was 0.421. The relative viability (LK-2; first compound 5 µM) was 0.714, the relative viability (LK-2; first compound 15.81 µM) was 0.702 and the relative viability (LK-2; first compound 50 µM) was 0.749. For the same compound, the relative viability (LK-2; first compound 158.11 µM) was 0.796, the relative viability (LK-2; first compound 500 µM) was 0.736 and the relative viability (LC-2-ad; first compound 5 µM) was 0.629. The relative viability (LC-2-ad; first compound 15.81 µM) was 0.634, the relative viability (LC-2-ad; first compound 50 µM) was 0.653 and the relative viability (LC-2-ad; first compound 158.11 µM) was 0.214. The relative viability (LC-2-ad; first compound 500 µM) was 0.0817, the relative viability (NCI-H2009; first compound 5 µM) was 0.703 and the relative viability (NCI-H2009; first compound 15.81 µM) was 0.707. The relative viability (NCI-H2009; first compound 50 µM) was 0.67, the relative viability (NCI-H2009; first compound 158.11 µM) was 0.109 and the relative viability (NCI-H2009; first compound 500 µM) was 0.0171. It also gave a relative viability (NCI-H3122; first compound 5 µM) of 0.672, a relative viability (NCI-H3122; first compound 15.81 µM) of 0.589 and a relative viability (NCI-H3122; first compound 50 µM) of 0.574. For the same compound, the relative viability (NCI-H3122; first compound 158.11 µM) was 0.442, the relative viability (NCI-H3122; first compound 500 µM) was 0.609 and the relative viability (SW 1573; first compound 5 µM) was 0.442. The relative viability (SW 1573; first compound 15.81 µM) was 0.395, the relative viability (SW 1573; first compound 50 µM) was 0.406 and the relative viability (SW 1573; first compound 158.11 µM) was 0.135. For the same compound, the relative viability (SW 1573; first compound 500 µM) was 0.071, the relative viability (SK-MES-1; first compound 5 µM) was 0.641 and the relative viability (SK-MES-1; first compound 15.81 µM) was 0.635. It also gave a relative viability (SK-MES-1; first compound 50 µM) of 0.556, a relative viability (SK-MES-1; first compound 158.11 µM) of 0.163 and a relative viability (SK-MES-1; first compound 500 µM) of 0.0936.
